Experimental findings from paper PMC11726654, “Discovery of MDI-114215: A Potent and Selective LIMK Inhibitor To Treat Fragile X Syndrome” (Journal of Medicinal Chemistry, 2024) are described below.

One data set concerns the target LIMK1 (Homo sapiens, UniProt P53667). Description: RapidFire mass spectrometry kinase assay (cofilin phosphorylation). The data set is classed as biochemical. The note with it: non-phosphorylated LIMK1; mean ± SEM; read-out: Enzymatic (RapidFire) pIC50 LIMK1 (converted).
The target in a further data set is LIMK2 (Homo sapiens, UniProt P53671). The description is as above. The data set is classed as biochemical. To be noted: non-phosphorylated LIMK2; mean ± SEM; read-out: Enzymatic (RapidFire) pIC50 LIMK2 (converted).
Data set [1] in a line: Microsomal stability. To be noted: for microsomal CLint at 2 μM / microsomal CLint at 0.5 h, 2 µM: human, microsomes, pH 7.4.
Data set [2] in a line: Microsomal stability. The note with it: for Microsomal CLint Rat: rat microsomes, 2 μM compound; for microsomal CLint at 2 μM / microsomal CLint at 0.5 h, 2 µM: rat, microsomes, pH 7.4.
The nature of another data set: In vivo PK, i.v. dosing. To be noted: male, Sprague-Dawley, rat, plasma; for CLint scaled: intravenous; for AUC(0-inf) at 1 h / Vd at 1 h / half-life at 1 h: iv.
Data set [3] in a line: Caco-2 permeability and efflux. The note with it: human, Caco-2.
The subject of data set [4] is p-cofilin Ser3 levels in SH-SY5Y cells. Kind of data set: AlphaLISA SureFire p-cofilin assay. The data set is classed as cell-based. To be noted: Homo sapiens, 2 h, read-out: alphaLISA pIC50 p-cofilin (converted).
Experimental: The AlphaLISA assay for detection of p-cofilin Ser3 levels was followed as previously described.[14] […] Cells were placed in the incubator for 2 h, after which the media was removed and the cells were lysed using 50 μL AlphaLISA 1× lysis buffer (PerkinElmer, USA) containing protease inhibitor cocktail (Sigma/Merck, Dorset, UK) and Pierce phosphatase inhibitor cocktail (Thermo Fisher Scientific, UK). The cell lysate was then transferred to a clean, flat-bottom, white 384-well plate, to which 5 μL/well of acceptor bead solution consisting of Reaction buffer 1, Reaction buffer 2, Activation Buffer and Acceptor Beads from pCofilin SureFire Ultra assay kit (PerkinElmer, USA, cat# ALSU-PCOF-A500) was added under dim light. After incubation at RT for 1 h, 5 μL/well of donor solution consisting of Dilution Buffer and Donor beads was added. The plate was read on a Pherastar reader (BMD Labtech Ltd., Aylesbury, UK) using an AlphaLISA cartridge and AlphaLISA plate settings.
The nature of data set [5]: Unbound fraction in brain and plasma. The data set is classed as in vitro ADME.
Data set [6] is described as follows: In vivo PK, p.o./i.p. dosing. The note with it: male, Sprague-Dawley, rat, plasma, po, 3 mg/kg.
Another data set has as its system Caco-2. Kind of data set: Caco-2 permeability and efflux. The note with it: efflux ratio.

Sequence of LIMK1 (P53667 whole entry): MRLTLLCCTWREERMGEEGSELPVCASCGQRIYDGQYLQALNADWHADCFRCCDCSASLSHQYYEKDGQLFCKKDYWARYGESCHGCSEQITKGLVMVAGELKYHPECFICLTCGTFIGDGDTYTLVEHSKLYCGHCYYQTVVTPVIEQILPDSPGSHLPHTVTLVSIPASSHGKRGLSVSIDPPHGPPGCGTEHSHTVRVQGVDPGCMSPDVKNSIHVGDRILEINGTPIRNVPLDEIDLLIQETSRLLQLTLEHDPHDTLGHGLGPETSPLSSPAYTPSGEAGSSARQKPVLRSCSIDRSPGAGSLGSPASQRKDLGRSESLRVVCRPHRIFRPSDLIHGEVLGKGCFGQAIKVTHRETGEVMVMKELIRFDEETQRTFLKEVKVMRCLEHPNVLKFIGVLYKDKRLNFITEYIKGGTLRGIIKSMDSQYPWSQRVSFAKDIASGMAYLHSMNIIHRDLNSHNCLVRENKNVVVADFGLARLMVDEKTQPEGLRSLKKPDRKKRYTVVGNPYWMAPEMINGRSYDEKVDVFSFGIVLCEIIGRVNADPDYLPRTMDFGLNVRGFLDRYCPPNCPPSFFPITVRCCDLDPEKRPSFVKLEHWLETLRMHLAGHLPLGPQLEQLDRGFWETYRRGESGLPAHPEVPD
Sequence of LIMK2 (P53671 whole entry): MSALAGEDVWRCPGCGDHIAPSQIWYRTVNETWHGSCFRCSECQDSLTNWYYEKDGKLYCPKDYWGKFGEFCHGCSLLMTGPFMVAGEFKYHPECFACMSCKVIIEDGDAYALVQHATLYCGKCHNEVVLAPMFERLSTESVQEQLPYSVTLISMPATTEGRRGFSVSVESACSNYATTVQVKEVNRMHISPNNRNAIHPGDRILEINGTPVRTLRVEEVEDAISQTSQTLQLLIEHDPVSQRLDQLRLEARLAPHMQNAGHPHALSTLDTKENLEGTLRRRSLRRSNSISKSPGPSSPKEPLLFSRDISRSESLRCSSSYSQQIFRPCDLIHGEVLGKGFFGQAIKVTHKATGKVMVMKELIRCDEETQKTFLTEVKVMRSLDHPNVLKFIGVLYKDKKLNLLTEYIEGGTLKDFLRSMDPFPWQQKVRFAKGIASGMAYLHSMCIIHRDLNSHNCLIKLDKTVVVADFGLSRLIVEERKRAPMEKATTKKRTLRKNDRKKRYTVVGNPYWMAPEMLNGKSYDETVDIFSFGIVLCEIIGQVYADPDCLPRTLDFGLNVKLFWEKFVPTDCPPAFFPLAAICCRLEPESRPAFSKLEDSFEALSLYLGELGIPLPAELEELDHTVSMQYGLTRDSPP
Experimental for In vivo PK, i.v. dosing: A satellite group of three animals were also administered i.v. test compound (dosed at 1 mg/kg in 10% DMSO/20% Cremophor/70% saline) and after 1 h, the animals culled and brain samples immediately prepared by homogenization in H2O and protein precipitation in MeCN. Bioanalysis on plasma and brain samples were performed using a UHPLC-tandem mass spectrometry using electrospray ionization.

In the case of `CCCCN(CC1CCCO1)C(=O)c1ccc(S(=O)(=O)Nc2ccccc2)cc1` (stereo not drawn) [Compound 47, N-Butyl-4-(N-phenylsulfamoyl)-N-((tetrahydrofuran-2-yl)methyl)benzamide], the IC50 at LIMK1 and on LIMK2 was more than 10000 nM each time. Also, the microsomal CLint (commonly the rate of metabolic loss divided by the concentration) at 2 μM in “Microsomal stability [1]” worked out at 427 µL/min/mg. Further, in “Microsomal stability [2]”, the “Microsomal CLint Rat” value is listed as “Rapid”.
In the case of `CCCCN(Cc1ccc(CCC(=O)O)cc1)C(=O)c1ccc(S(=O)(=O)Nc2ccccc2)cc1` [Compound 48, 3-(4-((N-Butyl-4-(N-phenylsulfamoyl)benzamido)methyl)phenyl)propanoic acid], the IC50 was 166 nM on LIMK1 and 20.9 nM at LIMK2. The microsomal CLint at 2 μM in “Microsomal stability [1]” was 15 µL/min/mg; in the data set “Microsomal stability [2]”, 18 µL/min/mg.
The like results for `CCCCN(Cc1ccc(N2CCNCC2)cc1)C(=O)c1ccc(S(=O)(=O)Nc2ccccc2)cc1` [Compound 49, N-Butyl-4-(N-phenylsulfamoyl)-N-(4-(piperazin-1-yl)benzyl)benzamide] were, in that order, more than 10000 nM, 2290 nM, 50 µL/min/mg and 56 µL/min/mg.
`N#CCCN(Cc1ccncc1)C(=O)c1ccc(S(=O)(=O)Nc2ccccc2)cc1` [Compound 55, N-(2-Cyanoethyl)-4-(phenylsulfamoyl)-N-(4-pyridylmethyl)benzamide] registered a microsomal CLint at 2 μM in the data set “Microsomal stability [1]” of 32 µL/min/mg. The compound also showed a microsomal CLint at 2 μM in “Microsomal stability [2]” of 81 µL/min/mg. Also, the CLint scaled (in general, the rate of metabolic loss divided by the concentration) in the data set “In vivo PK, i.v. dosing” worked out at 16.5 mL/min/kg. In the data set “In vivo PK, i.v. dosing” (0.2 mg/kg), the AUC(0-inf) (commonly total exposure, with the tail of the curve extrapolated) at 1 h worked out at 217 ng·h/mL; the Vd (as a rule, the apparent volume that relates the amount in the body to the concentration in plasma or blood) at 1 h is 0.4 L/kg; the half-life (usually how long it takes for the measured level to halve) at 1 h was 18 min.
On to `O=C(c1ccc(S(=O)(=O)Nc2ccccc2)cc1)N(CCCn1ccnc1)Cc1ccccc1` [Compound 56, N-Benzyl-N-(3-imidazol-1-ylpropyl)-4-(phenylsulfamoyl)benzamide], for which the IC50 on LIMK1 is 347 nM; on LIMK2, 18.2 nM. Further, the microsomal CLint at 2 μM in the data set “Microsomal stability [1]” worked out at 80 µL/min/mg; in the data set “Microsomal stability [2]”, 158 µL/min/mg.
With `O=C(c1ccc(S(=O)(=O)Nc2ccccc2)cc1)N(Cc1ccccc1)C1CC1` [Compound 58, N-Benzyl-N-cyclopropyl-4-(phenylsulfamoyl)benzamide], the values for the IC50 at LIMK1 and on LIMK2 were 1070 nM and 46.8 nM, respectively. The same compound displayed a microsomal CLint at 2 μM in the data set “Microsomal stability [1]” of 396 µL/min/mg. In addition, the “Microsomal CLint Rat” value in “Microsomal stability [2]” is “Rapid”.
Consider `CC(C)CN(Cc1ccccc1)C(=O)c1ccc(S(=O)(=O)Nc2ccccc2)cc1` [Compound 59, N-Benzyl-N-isobutyl-4-(phenylsulfamoyl)benzamide], for which the values for the IC50 on LIMK1 and at LIMK2 were 1020 nM and 20.9 nM, respectively. Besides, the “Microsomal CLint Human” value in the data set “Microsomal stability [1]” (human microsomes, 2 μM compound) is listed as “Rapid”. In addition, the “Microsomal CLint Rat” value in “Microsomal stability [2]” is “Rapid”.
Regarding `O=C(c1ccc(S(=O)(=O)Nc2ccccc2)cc1)N(Cc1ccccc1)CC1(Cn2ccnc2)CC1` [Compound 60, N-Benzyl-N-[[1-(imidazol-1-ylmethyl)cyclopropyl]methyl]-4-(phenylsulfamoyl)benzamide], the figures for the IC50 on LIMK1 and at LIMK2 were 407 nM and 19.1 nM, respectively. The microsomal CLint at 2 μM was found to be 109 µL/min/mg in the data set “Microsomal stability [1]” and 395 µL/min/mg in “Microsomal stability [2]”.
The like results for `O=C(c1ccc(S(=O)(=O)Nc2ccccc2)cc1)N(Cc1ccc2[nH]ccc2c1)CC1CC1` [Compound 61, N-(Cyclopropylmethyl)-N-(1H-indol-5-ylmethyl)-4-(phenylsulfamoyl)benzamide] were, in that order, 11 nM, 11 nM, 288 µL/min/mg and 802 µL/min/mg.
Turning to `O=C(c1ccc(S(=O)(=O)Nc2ccccc2)cc1)N(Cc1ccc2ncoc2c1)CC1CC1` [Compound 62, N-(1,3-Benzoxazol-6-ylmethyl)-N-(cyclopropylmethyl)-4-(phenylsulfamoyl)benzamide], the IC50 at LIMK1 is 95.5 nM; at LIMK2, 6.46 nM. The compound also registered a microsomal CLint at 2 μM in the data set “Microsomal stability [1]” of 263 µL/min/mg. Also, the “Microsomal CLint Rat” value in “Microsomal stability [2]” is “Rapid”.
For `O=C(c1ccc(S(=O)(=O)Nc2ccccc2)cc1)N(Cc1ccc(Br)cn1)CC1CC1` [Compound 63, N-[(5-Bromo-2-pyridyl)methyl]-N-(cyclopropylmethyl)-4-(phenylsulfamoyl)benzamide] the same measures were 19.1 nM, 25.7 nM, 307 µL/min/mg and “Rapid”.
For `C[C@@H](c1ccccc1)N(CC1CC1)C(=O)c1ccc(S(=O)(=O)Nc2ccccc2)cc1` [Compound 64, (S)-N-(Cyclopropylmethyl)-N-(1-phenylethyl)-4-(N-phenylsulfamoyl)benzamide] the same measures were 240 nM, 100 nM, 774 µL/min/mg and “Rapid”.
`C[C@H](c1ccccc1)N(CC1CC1)C(=O)c1ccc(S(=O)(=O)Nc2ccccc2)cc1` [Compound 65, (R)-N-(Cyclopropylmethyl)-N-(1-phenylethyl)-4-(N-phenylsulfamoyl)benzamide]: the IC50 on LIMK1 was 4900 nM; on LIMK2, 1070 nM. Besides, in “Microsomal stability [1]”, the microsomal CLint at 2 μM came to 419 µL/min/mg. The “Microsomal CLint Rat” value in “Microsomal stability [2]” was “Rapid”.
`O=C(c1ccc(S(=O)(=O)Nc2ccccc2)cc1)N(Cc1ccc(F)cn1)CC1CC1` [Compound 71, N-(Cyclopropylmethyl)-N-((5-fluoropyridin-2-yl)methyl)-4-(N-phenylsulfamoyl)benzamide] had a microsomal CLint at 0.5 h, 2 µM in “Microsomal stability [1]” of 282 µL/min/mg. Further, the “Microsomal CLint Rat” value in “Microsomal stability [2]” is recorded as “Rapid”. For the same compound, the Papp (in general, a coefficient for how fast a substance crosses the barrier) in data set [3] stood at 21.1 ×10⁻⁶ cm/s.
As for `O=C(c1ccc(S(=O)(=O)Nc2ccccc2)cc1)N(Cc1ccc(NCCO)cn1)CC1CC1` [Compound 74, N-(Cyclopropylmethyl)-N-[[5-(2-hydroxyethylamino)-2-pyridyl]methyl]-4-(phenylsulfamoyl)benzamide], the IC50 in [4] was 661 nM. Besides, the fubrain in data set [5] (unbound fraction in brain) was determined as 2.8%. Also, the fuplasma in data set [5] (unbound fraction in plasma) amounted to 8.0%. The microsomal CLint at 0.5 h, 2 µM in the data set “Microsomal stability [1]” was found to be 42 µL/min/mg. Also, the microsomal CLint at 0.5 h, 2 µM in the data set “Microsomal stability [2]” was 114 µL/min/mg. In addition, the CLint scaled in “In vivo PK, i.v. dosing” is 51.9 mL/min/kg. In “In vivo PK, i.v. dosing” (1 mg/kg), this compound gave an AUC(0-inf) at 1 h of 322 ng·h/mL, a Vd at 1 h of 1.8 L/kg and a half-life at 1 h of 42 min. Further, in [6], the Cmax (in general, the highest concentration seen after dosing) at 1 h came out at 50.8 ng/mL; the Tmax (in general, the time from dosing to the highest level) at 1 h came out at 24 min; the bioavailability (as a rule, dose-corrected exposure relative to a reference, in per cent) at 1 h stood at 15%.
For `O=C(c1ccc(S(=O)(=O)Nc2ccccc2)cc1)N(Cc1ccc(NC2COC2)cn1)CC1CC1` [Compound 76, N-(Cyclopropylmethyl)-N-[[5-(oxetan-3-ylamino)-2-pyridyl]methyl]-4-(phenylsulfamoyl)benzamide], the microsomal CLint at 0.5 h, 2 µM worked out at 71 µL/min/mg in “Microsomal stability [1]” and 22 µL/min/mg in “Microsomal stability [2]”. In addition, the Papp in data set [3] came to 1.7 ×10⁻⁶ cm/s.
On to `CN(CCO)c1ccc(CN(CC2CC2)C(=O)c2ccc(S(=O)(=O)Nc3ccccc3)cc2)nc1` [Compound 77, N-(Cyclopropylmethyl)-N-[[5-[2-hydroxyethyl(methyl)amino]-2-pyridyl]methyl]-4-(phenylsulfamoyl)benzamide], for which, in the data set “Microsomal stability [1]”, the microsomal CLint at 2 μM is 109 µL/min/mg. Moreover, the “Microsomal CLint Rat” value in “Microsomal stability [2]” is reported as “Rapid”. The compound also yielded a Papp in data set [3] of 0.5 ×10⁻⁶ cm/s.
Take `O=C(c1ccc(S(=O)(=O)Nc2ccccc2)cc1)N(Cc1ccc(CCc2nnn[nH]2)cn1)CC1CC1` [Compound 79, N-(Cyclopropylmethyl)-4-(phenylsulfamoyl)-N-[[5-[2-(1H-tetrazol-5-yl)ethyl]-2-pyridyl]methyl]benzamide]: the microsomal CLint at 2 μM in the data set “Microsomal stability [1]” was 22 µL/min/mg; in “Microsomal stability [2]”, 12 µL/min/mg. Besides, the Papp in [3] turned out to be 0.1 ×10⁻⁶ cm/s. Besides, the “Caco-2 ER” value in the data set with Caco-2 was 103.
The like results for `Cc1nc(CN(CC2CC2)C(=O)c2ccc(S(=O)(=O)Nc3ccccc3)cc2)ccc1NCCO` [Compound 82, N-(Cyclopropylmethyl)-N-[[5-(2-hydroxyethylamino)-6-methyl-2-pyridyl]methyl]-4-(phenylsulfamoyl)benzamide] were, in that order, 97 µL/min/mg, 221 µL/min/mg, 0.6 ×10⁻⁶ cm/s and 81.
In the case of `Cc1cc(CN(CC2CC2)C(=O)c2ccc(S(=O)(=O)Nc3ccccc3)cc2)ncc1NCCO` [Compound 83, N-(Cyclopropylmethyl)-N-[[5-(2-hydroxyethylamino)-4-methyl-2-pyridyl]methyl]-4-(phenylsulfamoyl)benzamide], the microsomal CLint at 0.5 h, 2 µM in “Microsomal stability [1]” was 130 µL/min/mg; in the data set “Microsomal stability [2]” it was 171 µL/min/mg. The Papp in data set [3] was 0.5 ×10⁻⁶ cm/s.
Regarding `CN(c1ccccc1)S(=O)(=O)c1ccc(C(=O)N(Cc2ccc(NCCO)cn2)CC2CC2)cc1` [Compound 84, N-(Cyclopropylmethyl)-N-[[5-(2-hydroxyethylamino)-2-pyridyl]methyl]-4-[methyl(phenyl)sulfamoyl]benzamide], the results for the intrinsic metabolic clearance (microsomal CLint) at 2 μM in the data set “Microsomal stability [1]” and in “Microsomal stability [2]” were 344 µL/min/mg and 409 µL/min/mg, respectively. This compound also displayed a Papp in [3] of 5.7 ×10⁻⁶ cm/s. In addition, the “Caco-2 ER” value in the data set on Caco-2 was determined as 12.
